Patent US9125768B2, “Hygiene tissue comprising a microbe-inhibiting composition” (SCA HYGIENE PRODUCTS AB, priority 2006, dated 2015)

What was measured:
Candida albicans = assay: Test 3: growth of Candida albicans in extracellular product of Ess-1 combined with additive, visual turbidity; format: cell-based; conditions: additive 50 mM combined with supernatant from Ess-1, pH adjusted to pKa of the acid, 20 hours 37° C.
Experimental: Ess-1 was grown to stationary phase in dMRSs broth (MRS broth without addition of sodium acetate). The bacterial culture was centrifuged to pellet the cells and sterile filtered using a 0,22 μm filter (MILLIPORE filter, Bedford, USA) whereupon the supernatant comprising the extracellular product was obtained. […] Wells containing strong growth of Candida in pure dMRSs-broth was graduated as five, while wells with no visual growth were graduated as zero.

[1] = tested on: Candida albicans (C. albicans 702); assay: Test 1: growth of Candida albicans in extracellular product of LB 931 with additives, micro titre plate, visual turbidity; format: cell-based; conditions: additive 50 mM in combination with extracellular product of LB 931, pH 3.4±0.2, 37° C. 24 hrs
Experimental: The purpose of this test was to determine whether selected additives affect the growth of Candida albicans and if an improved growth inhibition can be achieved when they are added to the extracellular products of Lactobacillus plantarum, LB 931. The additives used in this test were ascorbic acid, citric acid, phenylalanine, acetic acid, propionic acid and sodium propionate.
A clinical isolate of Candida albicans (designated C. albicans 702) was used as test strain. It was isolated from the vagina of a person with vaginal candidiasis.
As control pure dMRSs broth (MRS broth without addition of sodium acetate) was used. A specified volume was transferred to wells of a micro titre plate and was let to air dry (45° C. minimum of 20 hrs).
Cultures of LB 931 grown in dMRSs broth were centrifuged to pellet the cells and sterile filtered using a 0,22 μm filter (MILLIPORE filter, Bedford, USA) in order to obtain the LB 931 supernatant com prising the LB 931 extracell War product. […]
The test was blinded so that there could be no preconceived opinions colouring the results. The inhibition of Candida was evaluated and graduated, by two persons using a template, on a scale from five to zero based on visual observations of turbidity with a calculated mean value being presented. […]

Row | SMILES | inhibition of Candida albicans (Candida albicans) | growth inhibiting effect on Candida (growth graded five to zero by turbidity) [1]
1 | O=C1O[C@H]([C@@H](O)CO)C(O)=C1O [ascorbic acid] | increased inhibition | –
2 | CCC(=O)O [propionic acid] | – | no growth at all
